# Assay results from patent US7838496B2, “Template-fixed peptidomimetics as medicaments against HIV and cancer” (Polyphor AG/Ltd., priority 2003, dated 2010).
# Where a SMILES comes first, the peptide text is derived from it. Bridges are numbered along the chain shown (N, C = ends). [ ]: non-standard residue; d: D form. Phe(4-NH2) = Nc1ccc(C[C@H](N)C(=O)O)cc1; 2Nal = N[C@@H](Cc1ccc2ccccc2c1)C(=O)O; Cit = NC(=O)NCCC[C@H](N)C(=O)O; Gly(N(CH2)3NH2) = NCCCNCC(=O)O
# What was measured:
# CXCR4 = biological target: T1, CXCR4 (Homo sapiens, UniProt P61073); assay: Ca2+ assay: CXCR4 antagonizing activity of the peptides; format: cell-based; details: CXCR4 transfected pre-B cells, Fura-2 fluorescence, 37° C.
# T1 construct: expressed in transfected cells
# T1 sequence (P61073 whole entry): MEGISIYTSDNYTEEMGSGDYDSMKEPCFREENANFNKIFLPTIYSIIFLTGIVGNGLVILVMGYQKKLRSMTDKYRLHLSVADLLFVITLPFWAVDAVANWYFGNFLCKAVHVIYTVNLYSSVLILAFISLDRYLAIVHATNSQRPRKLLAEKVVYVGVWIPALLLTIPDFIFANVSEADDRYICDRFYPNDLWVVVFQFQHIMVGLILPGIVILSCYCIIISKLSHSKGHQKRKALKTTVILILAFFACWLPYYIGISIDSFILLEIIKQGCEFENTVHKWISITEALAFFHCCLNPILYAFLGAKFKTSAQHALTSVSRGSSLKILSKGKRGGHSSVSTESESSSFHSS
# Protocol: 2.2. Ca^2+− assay: CXCR4Antagonizing Activity of the Peptides
# 3-4 Mio CXCR4 transfected pre-B cells [see references 1, 2 and 3, below] per measurement were resuspended in 200 μl MSB (20 mM 4-(2-Hyddroxyethyl)-piperazin-1-ethansulfonic acid (HEPES), 136 mM NaCl, 4.8 mM KCl and 1 mM CaCl2) containing 5 mM D-Glucose and were loaded with 0.75 μl of 1 mM Fura-2-acetoxymethylester for 17 minutes at 37° C. The cells were washed free from Fura-2-AM with a platelet centrifuge and resuspended in 800 R1 MSB containing 5 mM D-Glucose. The peptides to be administered were diluted to a 100 fold end concentration in MSB/0.2% PPL, and 8 pl were injected. [Ca^2+ ]i-dependent fluorescence change in response to single or sequential stimulation with the peptide was recorded with a fluorimeter at an excitation wavelength of 340 nm and an end emission wavelength of 510 nm [see ref. 4, below]. Measurements were done under continuous stirring at 37° C. The signal intension was calibrated with 3 mM4 CaCl2/1 nM lonomycin (maximal fura-2-acetoxymethylester saturation) and […] MnCl2 (minimal Fura-2-acetoxymethylester saturation) and [Ca^2+]i-changes are presented in % fura-2-acetoxymethylester saturation.
# MSB: 20 nmM HEPES, 136 mM NaCl, 4.8 mM KCl, 1 mM CaCl2.2H2O, pH 7.4; Osmolarity: 310 mOsm adjusted with NaOH or HCl, adjusted with dH2O or PBS.
# MSB plus: 5 mM D-glucose in MSB (50 mg/50 mL).
# Fura 2-acetoxymethylester: 1 mM stock solution in dimethylsulfoxide.
# [1] = test system: 'CCR5' cells / Hut/4-3 cells co-cultivation; assay: FIGS-Assay (co-cultivated cell cultures, beta-galactosidase/ONPG read-out); format: cell-based; details: at 200 nM; 48 hours of co-cultivation
# Protocol: The assay was performed according to ref. 5, below. Stock dilutions of the peptides (10 mM) were prepared by dissolving in 10 mM Tris-HCl at room temperature. Stock solutions were kept at +4° C., light protected. Working dilutions were prepared extemporaneously by serial dilution in Phosphate Buffered Saline (PBS) and added in a final volume of 10 μL directly to the cell cultures. After 48 hours of co-cultivation the cultures were rinsed with PBS and then exposed to glutaraldehyde/formaldehyde (0.2%/2%) in PBS for five minutes. For photometric quantification the fixed cultures were subsequently incubated with ortho-nitro-phenyl-galactopyranoside (ONPG) as a O-galactosidase substrate, which was enzymatically converted into the chromophore ortho-nitrophenol (ONP). The read out is directly obtained by measuring optical density of wells at 405 nm in an IEMS 96 well-plate reader.
# (§1) All fine chemicals came from Merck (D)armstadt, Germany).
# in vitro = format: cell-based
# Protocol: The cytotoxicity of the peptides to HELA cells (Acc57) and COS-7 cells (CRL-1651) was determined using the MTl reduction assay [see ref. 6 and 7, below]. Briefly the method was as follows: HELA cells and COS-7 cells were seeded at 7.0·10^3 and, respectively, 4.5·10^3 cells per well and grown in 96-well microtiter plates for 24 hours at 37° C. at 5% CO2. At this point, time zero (Tz) was determined by MTT reduction (see below). The supernatant of the remaining wells was discarded and fresh medium and the peptides in serial dilutions of 12.5, 25 and 50 μM were pipeted into the wells. Each peptide concentration was assayed in triplicate. Incubation of the cells was continued for 48 hours at 37° C. at 5% CO2. Wells were then washed once with PBS and subsequently 100 μl MTT reagent (0.5 mg/mL in medium RPMI1640 and, respectively, DMEM) was added to the wells. This was incubated at 37° C. for 2 hours and subsequently the medium was aspirated and 100 μl isopropanol was added to each well. The absorbance at 595 nm of the solubilized product was measured (OD595peptide). For each concentration averages were calculated from triplicates. The percentage of growth was calculated as follows: (OD595peptide-OD595Tz-OD595Empty well)/(OD595Tz-OD595Empty well)×100% and was plotted for each peptide concentration.
# The LC 50 values (Lethal Concentration, defined as the concentration that kills 50% of the cells) were determined for each peptide by using the trend line function of EXCEL (Microsoft Office 2000) for the concentrations (50, 25, 12.5 and 0 μM), the corresponding growth percentages and the value −50, (=TREND(C50:C0,%50:%0,−50))
# as §1
# [2] = test system: human red blood cells (hRBC); format: cell-based; details: red cells of human, 1 h
# Protocol: The peptides were tested for their hemolytic activity against human red blood cells (hRBC). Fresh hRBC were washed three times with phosphate buffered saline (PBS) by centrifugation for 10 min at 2000×g. Peptides at a concentration of 100 μM were incubated with 20% v/v hRBC for 1 hour at 37-C. The final erythrocyte concentration was approximately 0.9×10^9 cells per mL. A value of 0% resp. 100% cell lysis was determined by incubation of the hRBC in the presence of PBS alone and respectively 0.1% Triton X-100 in H2O. The samples were centrifuged and the supernatant was 20-fold diluted in PBS buffer and the optical density (OD) of the sample at […] was measured. The 100% lyses value (OD540H2O) gave an OD540 of approximately 1.3-1.8. Percent hemolysis was calculated as follows: (OD540peptide/OD540H2O)×100%.
# CCRF-CEM cells = CCRF-CEM cells (Homo sapiens, UniProt P61073); details: read-out: IC50 (μM) Cell migration assay; CCRF-CEM cells migrating to 1 nM SDF-1, 4 hours
# Sequence of CCRF-CEM cells (P61073 whole entry): as above
# Protocol: BELA cells and CCRF-CEM cells were maintained in RPMI1640 plus 5% FBS, Pen/Strept and 2 mM L-Glutamine. […] All cell lines were grown at 37° C. at 5% CO2. Cell media, media supplements, PBS-buffer, HEPES, Pen/Strept., L-Glutamine and sera were purchased from Gibco (Pailsey, UK). All fine chemicals came from Merck (D)armstadt, Germany).
# Chemotactic Assay (Cell Migration Assay)
# The chemotactic response of CCRF-CEM cells to a gradient of stromal cell-derived factor 1 a (SDF-1) was measured using disposable assay plates from Neuroprobe (5 μ pore size) (Gaithersburg, Md.), according to the manufacturer's directions and references therein [especially ref. 8, below]. Briefly, one 175 cm^2 flask was washed once with Dubecco's phosphate buffered saline (DPBS), and trypsinized for 10 minutes or until cells had lifted. The trypsin was neutralized by the addition of fresh medium containing serum and the cells were pelleted, washed once in DPBS, and resuspended at 1-0.5×10^7 cells/ml in RPM!+0.5% bovine serum albumin (BSA). 451 μl of cell suspension were mixed with 5μ of 10-fold concentrated PEM peptide diluted in the same assay medium. 35 μl of this mixture were applied to the top of the assay filter. The cells were allowed to migrate (at 37°) into the bottom chamber of the assay plate containing 1 nM SDF-1. After 4 hours, the filter was removed and MTT was added to the migrated cells to a final concentration of 0.5 mg/ml, and incubated for a further 4 hours. After labeling with MTT, all medium was removed and 100 μl of isopropanol+10 mM HCl were added to the cells. The optical absorbance at 595 nm (ABS595) was read using a Tecan Genios plate reader with Magellan software. The number of cells migrated was determined by comparing ABS595 values against a standard curve generated with a known number of cells in the assay plate and were plotted against SDF-1 concentration to obtain a sigmoidal curve and to determine the IC50 values. The values for IC50 were determined using the Trendline function in Microsoft Excel by fitting a logarithmic curve to the averaged datapoints.
Compound,IC50 (CXCR4),FIGS % inhibition at 200 nM [1],CC50 at 48 h (in vitro),Hemolysis at 100 μM [2],IC50 (CCRF-CEM cells),CC50 (in vitro)
N=C(N)NCCC[C@H](NC(=O)[C@@H]1CSSC[C@H](NC(=O)[C@H](Cc2ccc(N)cc2)NC(=O)[C@H](CCCNC(=N)N)NC(=O)[C@@H](N)CCCNC(=N)N)C(=O)N[C@@H](Cc2ccc(O)cc2)C(=O)N[C@@H](CCCNC(N)=O)C(=O)N[C@@H](CCCCN)C(=O)N2CCC[C@@H]2C(=O)N2CCC[C@H]2C(=O)N[C@@H](Cc2ccc(O)cc2)C(=O)N[C@@H](CCCNC(=N)N)C(=O)N[C@@H](CCCNC(N)=O)C(=O)N1)C(N)=O [Example 12] (H-RR[Phe(4-NH2)]CY[Cit]K[dP]PYR[Cit]CR-NH2; disulfide 4-13),13.9 nM,71.3%,226000 nM,0.1%,5 µM,
N=C(N)NCCC[C@H](NC(=O)[C@@H]1CSSC[C@H](NC(=O)[C@H](Cc2ccc3ccccc3c2)NC(=O)[C@H](CCCNC(=N)N)NC(=O)[C@@H](N)CCCNC(=N)N)C(=O)N[C@@H](Cc2ccc(O)cc2)C(=O)N[C@@H](CCCNC(N)=O)C(=O)N[C@@H](CCCCN)C(=O)N2CCC[C@@H]2C(=O)N2CCC[C@H]2C(=O)N[C@@H](Cc2ccc(O)cc2)C(=O)N[C@@H](CCCNC(=N)N)C(=O)N[C@@H](CCCNC(N)=O)C(=O)N1)C(N)=O [Example 7] (H-RR[2Nal]CY[Cit]K[dP]PYR[Cit]CR-NH2; disulfide 4-13; N-terminus assumed),,,,0.3%,0.55 µM,56000 nM
N=C(N)NCCC[C@@H](N)C(=O)N[C@@H](CCCNC(=N)N)C(=O)N[C@@H](Cc1ccc2ccccc2c1)C(=O)N[C@H]1CSSC[C@@H](C(=O)N[C@@H](CCCNC(=N)N)C(N)=O)NC(=O)[C@H](CCCNC(N)=O)NC(=O)[C@H](CCCNC(=N)N)NC(=O)[C@H](Cc2ccc(O)cc2)NC(=O)[C@@H]2CCCN2C(=O)[C@H]2CCCN2C(=O)[C@H](CCCCN)NC(=O)[C@H](CCCNC(N)=O)NC(=O)[C@H](Cc2ccc(O)cc2)NC1=O [Example 10] (H-[dR]R[2Nal]CY[Cit]K[dP]PYR[Cit]CR-NH2; disulfide 4-13),21.5 nM,82.0%,118000 nM,0.6%,0.55 µM,
CC(=O)N[C@@H](CCCNC(=N)N)C(=O)N[C@@H](CCCNC(=N)N)C(=O)N[C@@H](Cc1ccc2ccccc2c1)C(=O)N[C@H]1CSSC[C@@H](C(=O)N[C@@H](CCCNC(=N)N)C(N)=O)NC(=O)[C@H](CCCNC(N)=O)NC(=O)[C@H](CCCNC(=N)N)NC(=O)[C@H](Cc2ccc(O)cc2)NC(=O)[C@@H]2CCCN2C(=O)[C@H]2CCCN2C(=O)[C@H](CCCCN)NC(=O)[C@H](CCCNC(N)=O)NC(=O)[C@H](Cc2ccc(O)cc2)NC1=O [Example 8] (Ac-RR[2Nal]CY[Cit]K[dP]PYR[Cit]CR-NH2; disulfide 4-13),13.9 nM,90.6%,226000 nM,0.1%,5 µM,
N=C(N)NCCC[C@H](NC(=O)[C@@H]1CSSC[C@H](NC(=O)[C@H](Cc2ccc3ccccc3c2)NC(=O)[C@H](CCCNC(=N)N)NC(=O)CNCCCN)C(=O)N[C@@H](Cc2ccc(O)cc2)C(=O)N[C@@H](CCCNC(N)=O)C(=O)N[C@@H](CCCCN)C(=O)N2CCC[C@@H]2C(=O)N2CCC[C@H]2C(=O)N[C@@H](Cc2ccc(O)cc2)C(=O)N[C@@H](CCCNC(=N)N)C(=O)N[C@@H](CCCNC(N)=O)C(=O)N1)C(N)=O [Example 15] (H-[Gly(N(CH2)3NH2)]R[2Nal]CY[Cit]K[dP]PYR[Cit]CR-NH2; disulfide 4-13),,,,,0.57 µM,
